Data taken from US12629388B2, “Intradialytic use of sodium nitrite” (Hope Medical Enterprises, Inc., priority 2017, dated 2026).
Where two headings read alike, the source gives them in different places.

How the values were obtained:
[1] = pre-mixed 1 L dialysate, pH 7.32 at 24.4° C. after addition; expected 2.997 mg/L
Method: (§1) Concentration of nitrite in samples was assayed by ion chromatography. The ion chromatograph was equipped with a conductivity detector, self-regenerating suppression system, eluent generator, and a Dionex IonPacAS19 analytical column. The nitrite concentration in the samples was measured and calculated against an external sodium nitrite standard. USP Sodium Nitrite Reference Standard (Item Number 1614454) was the testing standard (United States Pharmacopeia. Rockville, Maryland).

[2] = during the first hour of hemodialysis; cited from earlier work
[3] = Method: Example 1 was performed to determine the stability of sodium nitrite in aqueous solution when acid is added. A 100 mL sample of sodium nitrite solution with a concentration of 30 mg/mL was tested for the presence of nitrogen oxide gases (NO, NO2, N2O3, and N2O4) using an Orion Model 95-46 Nitrogen Oxide (NOx) electrode and a pH meter. With constant stirring, the mV reading with the NOx electrode and pH reading with the pH electrode were recorded after successive additions of 100 μL of either 0.02 N or 1 N hydrochloric acid.
[4] = mixed dialysate exiting Fresenius 2008K hemodialysis machine; expected 1.46 mg/L
Method: as §1
The machine was primed in bypass mode (dialysate and ultrafiltration rates set at zero) using normal saline.

[5] = dialysate bicarbonate concentrate; for Nitrite Concentration by Assay: room temperature, expected 38.1 mg/L
Method: as §1
Example 2 was performed to determine the stability of sodium nitrite in dialysate bicarbonate concentrate solution. At room temperature, 300 mg sodium nitrite was added to 7,700 mL of dialysate bicarbonate concentrate solution. The nitrite concentration of the dialysate bicarbonate concentrate solution was analyzed by ion chromatography 1) before addition of sodium nitrite; 2) 5 minutes after the addition of sodium nitrite; and 3) 2 hours after the addition of sodium nitrite.

[6] = for Nitrite Concentration After Addition of Sodium Nitrite (Time = 60 Min): average of two samples
Method: as §1
Dialysate bicarbonate concentrate solution was prepared by adding 1 package of Centrisol® MB-330 Series Sodium Bicarbonate Concentrate powder (650 g) to 7.7 liters of purified water.
The hemodialysis machine mixed the bicarbonate concentrate solution and acid concentrate solution with the dilution ratio of 1 part of an acid concentrate solution, 1.72 parts of a bicarbonate concentrate solution, and 42.38 parts of purified water. The machine was primed in bypass mode (dialysate and ultrafiltration rates set at zero) using normal saline. After priming, the hemodialysis machine was run in “Therapy Mode” with the following settings: blood flow rate 300 ml/minute, dialysate flow rate 600 mL/minute, ultrafiltration rate 0 mL/minute.
An aqueous solution of sodium nitrite was prepared by dissolving 3 mg of sodium nitrite in 1 liter of purified water. […] This valve was placed in the dialysate tubing approximately eight inches upstream of the dialyzer (pre-filter). Two sampling ports were placed four inches upstream (pre-dialyzer sampling port) and ten inches downstream (post-dialyzer sampling port) from the dialyzer to collect samples of dialysate for […] assay by ion chromatography.
The infusion pump infused the sodium nitrite solution into the tubing through the valve at a rate of 250 mL/hour (4.16 mL/minute).
Normal saline flowed into the dialyzer at a rate of 300 mL/minute from the Arterial line and exited the dialyzer through the Venous line. Samples of saline were collected from the venous side of the dialyzer.

O=NO [Sodium Nitrite, sodium nitrite]
Nitrite Concentration by Assay [1]: 1.149 mg/L
decline of the concentration of nitrite in the plasma [2]: over 60%
pH at which nitrogen oxides was detected ([3]; 30 mg/mL solution, successive addition of hydrochloric acid, detection limit 1 ppm NOx): 6.7
initial pH of the sodium nitrite solution ([3]; 100 mL solution, 30 mg/mL, before acid addition): 8.73
response of the Nitrogen Oxide electrode ([3]; at pH 4.9): 99.5 mV
response of the Nitrogen Oxide electrode ([3]; at pH 6.7): 8.0 mV
stability on exposure to acid (in words) ([3]; extent of decomposition generally inversely proportional to the pH): decomposes when exposed to acid
Nitrite Concentration by Assay [4]: None
Nitrate Concentration ([5]; 5 minutes after addition): None
Nitrite Concentration by Assay ([5]; 5 minutes after addition): 38.0 mg/L
Nitrate Concentration ([5]; 2 hours after addition): None
Nitrite Concentration by Assay ([5]; 2 hours after addition): 38.5 mg/L
Nitrite Concentration After Addition of Sodium Nitrite (Time = 60 Min) ([6]; dialysate after dialyzer): 235 nM
Nitrite Concentration After Addition of Sodium Nitrite (Time = 60 Min) ([6]; dialysate before dialyzer, 3 mg/L solution infused at 250 mL/hour, dialysate flow 600 mL/minute): 451 nM
stability when mixed with dialysate within dialysate tubing (in words) ([6]; infused between the hemodialysis machine and the dialyzer membrane): stable
Nitrite Concentration After Addition of Sodium Nitrite (Time = 60 Min) ([6]; saline solution after dialyzer (venous side)): 183 nM
